In PubChem BioAssay (NCI) one finds TGI data, which are given here for two molecules.

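Interpolation was linear, between the two tested concentrations surrounding the appropriate level; five concentrations were tested over 48 hours in 96-well plates. TGI denotes the concentration required for complete inhibition of growth.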 Where only a bound is given, the exact number is not on record here.

Among the test systems are T-47D breast; U251 CNS; OVCAR-4 ovarian; MDA-MB-435; PC-3 prostate; COLO 205 colon; NCI-H522 lung; SN12C renal; TK-10 renal; IGROV1 ovarian; SNB-19 CNS; UACC-257 melanoma; 786-0 renal; LOX IMVI melanoma; MALME-3M melanoma; NCI-H460 lung; SW-620 colon; OVCAR-5 ovarian.
Common to all, as to assay: growth of human tumour cells (NCI), 48 h

Turning to `O=C(C=P(c1ccccc1)(c1ccccc1)c1ccccc1)c1ccc(-c2cccs2)cc1`, the TGI in the assay on T-47D breast is 9.61 µM; in the assay on U251 CNS, 14.7 µM; in the assay on OVCAR-4 ovarian, 7.52 µM; in the assay with MDA-MB-435, 10.9 µM; with PC-3 prostate, 15.7 µM; in the assay with COLO 205 colon, 1.95 µM. Also, the TGI in the assay on NCI-H522 lung amounted to 12 µM; with SN12C renal, 17.6 µM; in the assay with TK-10 renal, 11.3 µM; in the assay with IGROV1 ovarian, 21.2 µM; with SNB-19 CNS, 11.2 µM; in the assay with UACC-257 melanoma it was 6.35 µM. Besides, the TGI came out at 17.6 µM in the assay with 786-0 renal; 19.6 µM in the assay with LOX IMVI melanoma; 13.4 µM in the assay with MALME-3M melanoma; 12.2 µM in the assay on NCI-H460 lung; 21.7 µM in the assay on SW-620 colon; 17.7 µM with OVCAR-5 ovarian.

Regarding `COc1cc(C(=O)NC2CCc3cc(OC)c(OC)c(OC)c3-c3ccc(OC)c(=O)cc32)cc(OC)c1OC` (stereo unspecified), the TGI in the assay with T-47D breast was > 100 µM; with U251 CNS, 33.4 µM; in the assay on OVCAR-4 ovarian, > 85.1 µM; in the assay on MDA-MB-435 it was 0.0961 µM; in the assay with PC-3 prostate, > 100 µM; in the assay with COLO 205 colon, 0.23 µM. Also, the TGI in the assay with NCI-H522 lung was 0.0544 µM; in the assay on SN12C renal, > 100 µM; in the assay on TK-10 renal, > 91.6 µM; in the assay on IGROV1 ovarian, 71.6 µM; in the assay on SNB-19 CNS, > 100 µM; with UACC-257 melanoma, 59.3 µM. For the same molecule, the TGI in the assay on 786-0 renal is 70.9 µM; in the assay with LOX IMVI melanoma, > 100 µM; in the assay on MALME-3M melanoma, 85.3 µM; with NCI-H460 lung, 15.3 µM; with SW-620 colon, > 100 µM; with OVCAR-5 ovarian, > 100 µM.
